Test results as given in US20250295732A1, “COMPOSITIONS AND METHODS FOR ACTIVATING INNATE IMMUNITY” (Zoetis Services LLC, priority 2021, published 2025).

Tested on: bovine monocyte-derived macrophages
Experiment: H3 histone modification quantification (ELISA)
Format: cell-based
Details: vs vehicle
Excerpt: Peripheral blood mononuclear cells (PBMC) were isolated from bovine blood using ficoll gradients. Bovine monocytes were isolated from PBMC using magnetic assisted cell sorting to positively select for CD14+ cells using anti-human CD14 microbeads (Miltenyi Biotec). Purified bovine blood CD14+ monocytes were differentiated into macrophages using an M2-skewing differentiation factor (recombinant bovine M-CSF) over 7 days then exposed to CATH2 or a vehicle control in the presence of bovine casein to mimic aspects of the mammary gland for 24 hr. […] Following the rest period, a subset of vehicle- and CATH2-trained monocyte-derived macrophages were assessed for epigenetic and transcriptomic changes. The remaining cells were challenged with LPS or E. coli bioparticle labeled with pH-sensitive pHrodo green dye and key parameters for macrophage activation/immune response were assessed including glycolytic activity, surface marker expression, gene expression, cytokine production, phagocytosis, reactive nitrogen species production, and miRNA profiling.
Histones were isolated from bovine monocyte-derived macrophages using commercially available histone extraction kits (Epigentek) according to the manufacturer's instructions and stored at −80° C. until histone quantification assays could be performed. […]

## RFGRFLRKIRRFRPKVTITIQGSARFG [CATH2, cathelicidin 2 peptide]
After CATH2 exposure and rest period, pre-LPS
  H3 histone modifications (incl. H3K27ac, H3K4me1): increased levels of various H3 histone modifications
After CATH2 exposure, rest, LPS 1 μg/mL 24 hr
  H3 histone modifications following LPS challenge: some modifications are retained to a lesser extent
